The IC50 is the midpoint of a concentration-inhibition curve. Lower therefore signals greater potency.

Series [1] addresses T1, Tyrosyl-DNA phosphodiesterase 1 (TDP1) (Homo sapiens, UniProt Q9NUW8).
T1 construct: TDP1 wild type (full-length, recombinant from E. coli, pLate31-TDP1)
In words: real-time fluorimetric assay with FAM/BHQ1 oligonucleotide; V(S) kinetics; EMSA and fluorescence anisotropy show no DNA competition. It counts as biochemical. (In general: In EMSA bound probe runs differently from free probe, usually more slowly.)

In series [2] the target is T2, Δ148TDP1 (Homo sapiens, UniProt Q9NUW8).
T2 construct: gene TDP1; Δ148TDP1, truncated form lacking the first 148 N-terminal amino acid residues (recombinant from E. coli)
T2 sequence (Q9NUW8 149-608, stated change not applied): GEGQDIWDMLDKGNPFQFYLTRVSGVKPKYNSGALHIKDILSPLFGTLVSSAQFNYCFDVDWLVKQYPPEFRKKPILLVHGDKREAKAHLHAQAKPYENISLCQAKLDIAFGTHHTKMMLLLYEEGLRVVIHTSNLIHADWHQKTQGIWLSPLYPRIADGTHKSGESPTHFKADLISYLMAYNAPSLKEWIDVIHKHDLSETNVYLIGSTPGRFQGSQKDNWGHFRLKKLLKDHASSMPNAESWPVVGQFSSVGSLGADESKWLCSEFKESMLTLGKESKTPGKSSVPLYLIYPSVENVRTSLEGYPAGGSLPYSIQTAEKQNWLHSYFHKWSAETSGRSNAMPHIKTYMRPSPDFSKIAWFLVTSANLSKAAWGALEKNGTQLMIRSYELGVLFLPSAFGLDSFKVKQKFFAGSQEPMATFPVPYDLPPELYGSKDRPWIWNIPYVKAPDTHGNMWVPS
The series is described as follows: real-time fluorimetric assay with FAM/BHQ1 oligonucleotide. The series is classed as biochemical.

The target of series [3] is TDP1 (wild type) (Homo sapiens, UniProt Q9NUW8 1-608). The series is described as follows: EMSA; no inhibitor; 0.5 uM TDP1, 0.1 uM DNA; two complexes (1:1 and 2:1); 50 mM Tris-HCl pH 8.0, 50 mM NaCl, 7 mM beta-mercaptoethanol; EMSA 10 min at 4 C, 5% PAGE in 0.3x TBE; anisotropy temperature not stated. The following applies: protein: recombinant; label: 5'-(5,6)-FAM; single strand.
Chain of TDP1 (wild type) (Q9NUW8 whole entry): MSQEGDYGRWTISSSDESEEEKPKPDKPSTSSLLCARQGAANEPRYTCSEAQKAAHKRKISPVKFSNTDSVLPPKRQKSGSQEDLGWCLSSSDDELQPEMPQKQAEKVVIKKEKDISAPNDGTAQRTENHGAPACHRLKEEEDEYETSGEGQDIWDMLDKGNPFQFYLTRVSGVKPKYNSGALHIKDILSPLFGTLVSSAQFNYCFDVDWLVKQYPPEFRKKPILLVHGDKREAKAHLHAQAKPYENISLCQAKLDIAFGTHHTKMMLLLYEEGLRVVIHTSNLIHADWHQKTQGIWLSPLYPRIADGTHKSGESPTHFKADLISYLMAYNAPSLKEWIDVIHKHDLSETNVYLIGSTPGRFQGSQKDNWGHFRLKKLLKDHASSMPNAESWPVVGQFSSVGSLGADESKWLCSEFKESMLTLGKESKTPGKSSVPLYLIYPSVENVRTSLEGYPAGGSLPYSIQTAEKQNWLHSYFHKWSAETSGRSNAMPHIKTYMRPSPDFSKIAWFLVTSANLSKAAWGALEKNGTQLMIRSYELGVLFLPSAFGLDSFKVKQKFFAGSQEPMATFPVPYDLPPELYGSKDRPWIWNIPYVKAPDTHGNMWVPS

T1 sequence (Q9NUW8 whole entry): as above

Regarding `CC(=O)c1c(O)c(C)c(O)c2c1OC1=CC(=O)C(=C(C)NCCCc3cc(C(C)(C)C)c(O)c(C(C)(C)C)c3)C(=O)C12C` (stereo not drawn) [OL9-116], the values for the IC50 in series [1] and in series [2] were 1400 ± 400 nM and 3800 ± 800 nM, respectively.

B1: 5'-FAM 16-mer oligonucleotide (ssDNA)
DNA: AACGTCAGGGTCTTCC
As for B1, in series [3], the binding result is listed as “binds”.

(Values after publication PMC13114712, “The Influence of TDP1 Inhibitor Usnic Acid Derivative OL9-116 on the Effects of Topotecan in Human Cells” (Current Issues in Molecular Biology, 2026).)
